Measurements from patent publication US9833497B2, “Human originated EGF domain proteins and use of the same” (CHENGDU SOURCEBIO LIMITED-LIABILITY COMPANY, priority 2013, dated 2017).

System: Citrobacter diversus
Assay: MIC against Gram-negative bacteria: Citrobacter diversus
Assay type: cell-based
Settings: 10 h cultivation at 37° C., 5×10^5 CFU/mL, two-fold serial dilution
Summary of the method: (§1)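 LB broth cultures at McFarland 0.5, spun down, resuspended, diluted to 5×10^5 CFU/mL final. Two-fold serial dilutions of purified human EGF domain proteins, triplicate. 37° C, 175 rpm shaking. Endpoint: no visible growth.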

Substance	MIC C. diversus
PRT1045 (HGPGCQEHCLCLHGGVCQATSGLCQCAPGYTGPHCA; listed as Homo sapiens)	50 µg/mL

Same assay, conditions: C. diversus; 10 h cultivation at 37° C.

Substance	MIC
PRT997 (EVDECLSDPCPVGASCLDLPGAFFCLCPSGFTGQLCE; listed as Homo sapiens)	50 µg/mL
PRT906 (LVHWCDSSPCKNGGKCWQTHTQYRCECPSGWTGLYCD; listed as Homo sapiens)	25 µg/mL

Same assay, conditions: C. diversus; 10 h cultivation at 37° C.; 5×10^5 CFU/mL

Substance	MIC (μg/mL) C. diversus
PRT230 (DVDECADPRACPEHATCNNTVGNYSCFCNPGFESSSGHLSFQGLKASCE; listed as Homo sapiens)	25 µg/mL

System: Proteus vulgaris
Assay: MIC against Gram-negative bacteria: Proteus vulgaris
Assay type: cell-based
Settings: 10 h cultivation at 37° C., 5×10^5 CFU/mL, two-fold serial dilution
Summary of the method: as §1

Substance	MIC P. vulgaris
PRT1045 (HGPGCQEHCLCLHGGVCQATSGLCQCAPGYTGPHCA; listed as Homo sapiens)	50 µg/mL

Same assay, conditions: P. vulgaris; 10 h cultivation at 37° C.

Substance	MIC
PRT997 (EVDECLSDPCPVGASCLDLPGAFFCLCPSGFTGQLCE; listed as Homo sapiens)	50 µg/mL
PRT906 (LVHWCDSSPCKNGGKCWQTHTQYRCECPSGWTGLYCD; listed as Homo sapiens)	12.5 µg/mL

Same assay, conditions: P. vulgaris; 10 h cultivation at 37° C.; 5×10^5 CFU/mL

Substance	MIC (μg/mL) P. vulgaris
PRT230 (DVDECADPRACPEHATCNNTVGNYSCFCNPGFESSSGHLSFQGLKASCE; listed as Homo sapiens)	12.5 µg/mL

System: Proteus mirabilis
Assay: MIC against Gram-negative bacteria: Proteus mirabilis
Assay type: cell-based
Settings: 10 h cultivation at 37° C., 5×10^5 CFU/mL, two-fold serial dilution
Summary of the method: as §1

Substance	MIC P. mirabilis
PRT1045 (HGPGCQEHCLCLHGGVCQATSGLCQCAPGYTGPHCA; listed as Homo sapiens)	12.5 µg/mL

Same assay, conditions: P. mirabilis; 10 h cultivation at 37° C.

Substance	MIC
PRT997 (EVDECLSDPCPVGASCLDLPGAFFCLCPSGFTGQLCE; listed as Homo sapiens)	25 µg/mL
PRT906 (LVHWCDSSPCKNGGKCWQTHTQYRCECPSGWTGLYCD; listed as Homo sapiens)	25 µg/mL

Same assay, conditions: P. mirabilis; 10 h cultivation at 37° C.; 5×10^5 CFU/mL

Substance	MIC (μg/mL) P. mirabilis
PRT230 (DVDECADPRACPEHATCNNTVGNYSCFCNPGFESSSGHLSFQGLKASCE; listed as Homo sapiens)	50 µg/mL

System: Enterobacter cloacae
Assay: MIC against Gram-negative bacteria: Enterobacter cloacae
Assay type: cell-based
Settings: 10 h cultivation at 37° C., 5×10^5 CFU/mL, two-fold serial dilution
Summary of the method: as §1

Substance	MIC E. cloacae
PRT1045 (HGPGCQEHCLCLHGGVCQATSGLCQCAPGYTGPHCA; listed as Homo sapiens)	12.5 µg/mL

Same assay, conditions: E. cloacae; 10 h cultivation at 37° C.

Substance	MIC
PRT997 (EVDECLSDPCPVGASCLDLPGAFFCLCPSGFTGQLCE; listed as Homo sapiens)	50 µg/mL
PRT906 (LVHWCDSSPCKNGGKCWQTHTQYRCECPSGWTGLYCD; listed as Homo sapiens)	50 µg/mL

Same assay, conditions: E. cloacae; 10 h cultivation at 37° C.; 5×10^5 CFU/mL

Substance	MIC (μg/mL) E. cloacae
PRT230 (DVDECADPRACPEHATCNNTVGNYSCFCNPGFESSSGHLSFQGLKASCE; listed as Homo sapiens)	25 µg/mL

System: E. coli BL21
Assay: MIC against Gram-negative bacteria: E. coli BL21
Assay type: cell-based
Settings: 10 h cultivation at 37° C., 5×10^5 CFU/mL, two-fold serial dilution
Summary of the method: as §1

Substance	MIC E. coli BL21
PRT1045 (HGPGCQEHCLCLHGGVCQATSGLCQCAPGYTGPHCA; listed as Homo sapiens)	50 µg/mL

Same assay, conditions: E. coli BL21; 10 h cultivation at 37° C.

Substance	MIC
PRT997 (EVDECLSDPCPVGASCLDLPGAFFCLCPSGFTGQLCE; listed as Homo sapiens)	12.5 µg/mL
PRT906 (LVHWCDSSPCKNGGKCWQTHTQYRCECPSGWTGLYCD; listed as Homo sapiens)	25 µg/mL

Same assay, conditions: E. coli BL21; 10 h cultivation at 37° C.; 5×10^5 CFU/mL

Substance	MIC (μg/mL) E. coli BL21
PRT230 (DVDECADPRACPEHATCNNTVGNYSCFCNPGFESSSGHLSFQGLKASCE; listed as Homo sapiens)	12.5 µg/mL

System: Klebsiella pneumonia
Assay: MIC against Gram-negative bacteria: Klebsiella pneumonia
Assay type: cell-based
Settings: 10 h cultivation at 37° C., 5×10^5 CFU/mL, two-fold serial dilution
Summary of the method: as §1

Substance	MIC K. pneumonia
PRT1045 (HGPGCQEHCLCLHGGVCQATSGLCQCAPGYTGPHCA; listed as Homo sapiens)	50 µg/mL

Same assay, conditions: K. pneumonia; 10 h cultivation at 37° C.

Substance	MIC
PRT997 (EVDECLSDPCPVGASCLDLPGAFFCLCPSGFTGQLCE; listed as Homo sapiens)	12.5 µg/mL
PRT906 (LVHWCDSSPCKNGGKCWQTHTQYRCECPSGWTGLYCD; listed as Homo sapiens)	25 µg/mL

Same assay, conditions: K. pneumonia; 10 h cultivation at 37° C.; 5×10^5 CFU/mL

Substance	MIC (μg/mL) K. pneumonia
PRT230 (DVDECADPRACPEHATCNNTVGNYSCFCNPGFESSSGHLSFQGLKASCE; listed as Homo sapiens)	12.5 µg/mL

System: Moraxella catarrhalis
Assay: MIC against Gram-negative bacteria: Moraxella catarrhalis
Assay type: cell-based
Settings: 10 h cultivation at 37° C., 5×10^5 CFU/mL, two-fold serial dilution
Summary of the method: as §1

Substance	MIC M. catarrhalis
PRT1045 (HGPGCQEHCLCLHGGVCQATSGLCQCAPGYTGPHCA; listed as Homo sapiens)	50 µg/mL

Same assay, conditions: M. catarrhalis; 10 h cultivation at 37° C.

Substance	MIC
PRT997 (EVDECLSDPCPVGASCLDLPGAFFCLCPSGFTGQLCE; listed as Homo sapiens)	12.5 µg/mL
PRT906 (LVHWCDSSPCKNGGKCWQTHTQYRCECPSGWTGLYCD; listed as Homo sapiens)	50 µg/mL

Same assay, conditions: M. catarrhalis; 10 h cultivation at 37° C.; 5×10^5 CFU/mL

Substance	MIC (μg/mL) M. catarrhalis
PRT230 (DVDECADPRACPEHATCNNTVGNYSCFCNPGFESSSGHLSFQGLKASCE; listed as Homo sapiens)	12.5 µg/mL

System: Serratia marcescens
Assay: MIC against Gram-negative bacteria: Serratia marcescens
Assay type: cell-based
Settings: 10 h cultivation at 37° C., 5×10^5 CFU/mL, two-fold serial dilution
Summary of the method: as §1

Substance	MIC S. marcescens
PRT1045 (HGPGCQEHCLCLHGGVCQATSGLCQCAPGYTGPHCA; listed as Homo sapiens)	50 µg/mL

Same assay, conditions: S. marcescens; 10 h cultivation at 37° C.

Substance	MIC
PRT997 (EVDECLSDPCPVGASCLDLPGAFFCLCPSGFTGQLCE; listed as Homo sapiens)	25 µg/mL
PRT906 (LVHWCDSSPCKNGGKCWQTHTQYRCECPSGWTGLYCD; listed as Homo sapiens)	25 µg/mL

Same assay, conditions: S. marcescens; 10 h cultivation at 37° C.; 5×10^5 CFU/mL

Substance	MIC (μg/mL) S. marcescens
PRT230 (DVDECADPRACPEHATCNNTVGNYSCFCNPGFESSSGHLSFQGLKASCE; listed as Homo sapiens)	50 µg/mL

System: Pseudomonas aeruginosa
Assay: MIC against Gram-negative bacteria: Pseudomonas aeruginosa
Assay type: cell-based
Settings: 10 h cultivation at 37° C., 5×10^5 CFU/mL, two-fold serial dilution
Summary of the method: as §1

Substance	MIC P. aeruginosa
PRT1045 (HGPGCQEHCLCLHGGVCQATSGLCQCAPGYTGPHCA; listed as Homo sapiens)	25 µg/mL

Same assay, conditions: P. aeruginosa; 10 h cultivation at 37° C.

Substance	MIC
PRT997 (EVDECLSDPCPVGASCLDLPGAFFCLCPSGFTGQLCE; listed as Homo sapiens)	12.5 µg/mL
PRT906 (LVHWCDSSPCKNGGKCWQTHTQYRCECPSGWTGLYCD; listed as Homo sapiens)	12.5 µg/mL

Same assay, conditions: P. aeruginosa; 10 h cultivation at 37° C.; 5×10^5 CFU/mL

Substance	MIC (μg/mL) P. aeruginosa
PRT230 (DVDECADPRACPEHATCNNTVGNYSCFCNPGFESSSGHLSFQGLKASCE; listed as Homo sapiens)	25 µg/mL

System: Aeromonas hydrophila
Assay: MIC against Gram-negative bacteria: Aeromonas hydrophila
Assay type: cell-based
Settings: 10 h cultivation at 37° C., 5×10^5 CFU/mL, two-fold serial dilution
Summary of the method: as §1

Substance	MIC A. hydrophila
PRT1045 (HGPGCQEHCLCLHGGVCQATSGLCQCAPGYTGPHCA; listed as Homo sapiens)	50 µg/mL

Same assay, conditions: A. hydrophila; 10 h cultivation at 37° C.

Substance	MIC
PRT997 (EVDECLSDPCPVGASCLDLPGAFFCLCPSGFTGQLCE; listed as Homo sapiens)	12.5 µg/mL
PRT906 (LVHWCDSSPCKNGGKCWQTHTQYRCECPSGWTGLYCD; listed as Homo sapiens)	12.5 µg/mL

Same assay, conditions: A. hydrophila; 10 h cultivation at 37° C.; 5×10^5 CFU/mL

Substance	MIC (μg/mL) A. hydrophila
PRT230 (DVDECADPRACPEHATCNNTVGNYSCFCNPGFESSSGHLSFQGLKASCE; listed as Homo sapiens)	12.5 µg/mL

System: E. coli DH5α
Assay: Antibacterial activity: MIC and growth curve against E. coli DH5α in 96-well plate
Assay type: cell-based
Settings: minimal inhibitory concentration against E. coli DH5α; 96-well plate, 5×10^5 CFU/mL, 37° C., judged after 8 h
Summary of the method: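 Log-phase DH5α (OD600 about 0.5, 37° C, 185 rpm in LB) was pelleted, resuspended in fresh LB and seeded at 5×10^5 CFU/mL with recombinant protein at 50, 25 and 12.5 μg/mL (two-fold series), in triplicate. Plates were shaken at 175 rpm, 37° C, and OD600 was read every 30 min. MIC was the lowest concentration with no growth.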

Substance	MIC
PRT230 (DVDECADPRACPEHATCNNTVGNYSCFCNPGFESSSGHLSFQGLKASCE; listed as Homo sapiens)	25 µg/mL
PRT997 (EVDECLSDPCPVGASCLDLPGAFFCLCPSGFTGQLCE; listed as Homo sapiens)	12.5 µg/mL
PRT906 (LVHWCDSSPCKNGGKCWQTHTQYRCECPSGWTGLYCD; listed as Homo sapiens)	50 µg/mL
PRT1045 (HGPGCQEHCLCLHGGVCQATSGLCQCAPGYTGPHCA; listed as Homo sapiens)	25 µg/mL
